Values quoted from earlier work as cited in patent EP0983068B1, “THE USE OF 1,2,4-TRIAZOLO 1,5-c]PYRIMIDINE HETEROCYCLIC ANALOGUES FOR THE PREPARATION OF MEDICAMENTS USEFUL FOR THE TREATMENT OF CEREBROVASCULAR DISTURBANCES” (SCHERING-PLOUGH S.p.A., priority 1997, dated 1998).

System: cerebral ischemia
Details: Life Sciences, 55, 61-65, 1994; Brain Research 705, 79-84, 1995

CP66713
effect in cerebral ischemia animal models: act favourably
